Values of other authors as cited in patent publication US20250222021A1, “METHOD OF TREATING ACID-BASE DISORDERS” (Renosis, Inc., priority 2017, published 2025).

Tested on: adult patients with CKD and serum bicarbonate 16 to 20 mmol/L
Settings: 2 years

O=C([O-])O.[Na+] [sodium bicarbonate]
Patients who developed ESRD: 6.5% | Patients with rapid progression (rapid decline of CrCl >3 ml/min per 1.73 m^2/yr): 9% | Relative risk of ESRD versus control: 0.13 | Relative risk of rapid progression versus control: 0.15 | Decrease in creatinine clearance (CrCl) (average 1.82 g/day bicarbonate): 1.88 ml/min per 1.73 m^2
